The assay relates to human leukemia cell line CCRF/CEM. Put plainly: Cytotoxicity test (growth inhibition of CCRF/CEM cells). The format is cell-based. The conditions noted are these: 72 hours exposure, cell count, non-linear regression, read-out: IC50 (concentration capable of inhibiting 50% of cell growth). The protocol: The cytotoxicity of the compounds synthesized 1–28 was assessed using a human leukemia cell line called CCRF/CEM. The CCRF/CEM cells were cultured in a culture medium containing RPMI 1640 (90%), bovine fetal sera (10%) and interleukin-2 (100 U/ml). The cytotoxicity assay was performed on […] CCRF/CEM cells seeded in 35 mm wells in 2 ml of culture medium. The cells were treated with the compounds under consideration for 72 hours and at the end of the period of exposure their number was counted and compared with that of control cells treated with C2-ceramide in order to establish the percentage of growth inhibition. The concentration capable of inhibiting 50% of cell growth was calculated by non-linear regression of the experimental data as described in M. Macchia, N. Jannitti, G. B. Gervasi, R. Danesi, J Med Chem, (1996) 39 (7): 1352–1356.

Experimental findings from US7214794B2, “Ceramide analogs, process for their preparation and their use as antitumor agents” (Bracco S.p.A., priority 1999, dated 2007) are described below.

As to `CCCCCCCCCCCCC/C=C/[C@@H](O)[C@H](CO)NC(C)=O` [controls, C2-ceramide], the IC50 turned out to be 31.6 µM.
